From patent publication US9850283B2, “Macrocyclic inhibitors of the PD-1/PD-L1 and CD80(B7-1)/PD-L1 protein/protein interactions” (BRISTOL-MYERS SQUIBB COMPANY, priority 2013, dated 2017)
Like-named read-outs stand apart in the source and are kept apart here. Positions of bridges follow the written chain, without caps; N, C: chain ends. Non-standard residues stand in square brackets, D forms with d. Residues, ends and D or L forms follow the SMILES beside them. PEG12 = NCCOCCOCCOCCOCCOCCOCCOCCOCCOCCOCCOCCOCCC(=O)O; 4Pal = N[C@@H](Cc1ccncc1)C(=O)O; NMeNle = CCCC[C@H](NC)C(=O)O; NMeA = CN[C@@H](C)C(=O)O; Sar = CNCC(=O)O

Target: T1, Human PD-L1/PD-1 (Homo sapiens, UniProt Q9NZQ7)
T1 construct: made in house; host or cells: HEK293T
T1 sequence (Q9NZQ7 with tags, fused parts or gaps): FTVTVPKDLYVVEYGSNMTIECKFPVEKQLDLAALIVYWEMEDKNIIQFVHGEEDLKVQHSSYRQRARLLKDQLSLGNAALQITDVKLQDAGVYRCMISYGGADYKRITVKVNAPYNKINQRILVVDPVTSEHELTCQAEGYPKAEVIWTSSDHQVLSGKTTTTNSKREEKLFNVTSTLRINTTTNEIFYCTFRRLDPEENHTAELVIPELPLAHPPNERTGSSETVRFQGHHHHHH
Test: HTRF PD-1-Ig/PD-L1-His binding assay (human PD-L1)
Procedure, shortened: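 Steps: truncated PD-1-Ig and PD-L1-His fusions are incubated in dPBS containing 0.1% (w/v) BSA and 0.05% (v/v) Tween-20. Detection antibodies are then added (Eu cryptate anti-Ig at 1 nM final, APC anti-His at 20 nM final), and time-resolved FRET is measured.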

[1] = Table 8, Compound No. 1 variant macrocyclic peptides, read-out: HTRF Human PD-L1/PD-1 Binding Assay IC50

Structure (SMILES): CC[C@H](C)[C@@H]1NC(=O)[C@H](CC(C)C)NC(=O)[C@H](Cc2ccccc2)NC(=O)CSC[C@@H](C(=O)NCC(N)=O)NC(=O)[C@H](CCCNC(=N)N)NC(=O)[C@H](Cc2ccccc2)NC(=O)[C@H](C(C)C)NC(=O)[C@H](CCCNC(=N)N)NC(=O)[C@H](CC(=O)O)NC(=O)[C@H](CC(C)C)NC(=O)[C@H]([C@@H](C)CC)NC(=O)[C@H](C(C)C)NC1=O [Compound No. 109] (HELM PEPTIDE1{[O=C(C[*:3])[*:2]].F.L.I.V.I.L.D.R.V.F.R.C.G.[am]}$PEPTIDE1,PEPTIDE1,1:R3-13:R3$$$V2.0)
- IC50 (Table 7, Compound No. 99 variant macrocyclic peptides, read-out: HTRF Human PD-L1/PD-1 Binding Assay IC50): > 20000 nM

Structure (SMILES): CCCC[C@H]1C(=O)N(C)[C@@H](CCCC)C(=O)N[C@@H](CCCNC(=N)N)C(=O)N[C@H](C(=O)NCC(N)=O)CSCC(=O)N[C@@H](Cc2ccncc2)C(=O)N(C)[C@@H](C)C(=O)N[C@@H](CC(N)=O)C(=O)N2CCC[C@H]2C(=O)N[C@@H](Cc2cnc[nH]2)C(=O)N[C@@H](CC(C)C)C(=O)N(C)CC(=O)N[C@@H](Cc2c[nH]c3ccccc23)C(=O)N[C@@H](CO)C(=O)N[C@@H](Cc2c[nH]c3ccccc23)C(=O)N1C [Compound No. 39] ({CH2CO}-[4Pal][NMeA]NPHL[Sar]WSW[NMeNle][NMeNle]RCG-NH2; thioether N-14)
- IC50 [1]: 33 nM

Structure (SMILES): CCCC[C@H]1C(=O)N(C)[C@@H](CCCC)C(=O)N[C@@H](CCCNC(=N)N)C(=O)N[C@H](C(=O)NCC(=O)NCCOCCOCCOCCOCCOCCOCCOCCOCCOCCOCCOCCOCCC(N)=O)CSCC(=O)N[C@@H](Cc2ccccc2)C(=O)N(C)[C@@H](C)C(=O)N[C@@H](CC(N)=O)C(=O)N2CCC[C@H]2C(=O)N[C@@H](Cc2cnc[nH]2)C(=O)N[C@@H](CC(C)C)C(=O)N(C)CC(=O)N[C@@H](Cc2c[nH]c3ccccc23)C(=O)N[C@@H](CO)C(=O)N[C@@H](Cc2c[nH]c3ccccc23)C(=O)N1C [Compound No. 116] ({CH2CO}-F[NMeA]NPHL[Sar]WSW[NMeNle][NMeNle]RCG[PEG12]-NH2; thioether N-14)
- IC50 (Table 10, Compound No. 116 variant macrocyclic peptides, read-out: HTRF Human PD-L1/PD-1 Binding Assay IC50): 21 nM

Structure (SMILES): CCCC[C@H]1C(=O)N[C@@H](CCCNC(=N)N)C(=O)N[C@H](C(=O)NCC(N)=O)CSCC(=O)N[C@@H](Cc2ccccc2)C(=O)N(C)[C@@H](C)C(=O)N[C@@H](CC(N)=O)C(=O)N2CCC[C@H]2C(=O)N[C@@H](Cc2cnc[nH]2)C(=O)N[C@@H](CC(C)C)C(=O)N(C)CC(=O)N[C@@H](Cc2c[nH]c3ccccc23)C(=O)N[C@@H](CO)C(=O)N[C@@H](Cc2c[nH]c3ccccc23)C(=O)N(C)[C@@H](CC(C)C)C(=O)N1C [Compound No. 65] (HELM PEPTIDE1{[O=C(C[*:3])[*:2]].F.[meA].N.P.H.L.[Sar].W.S.W.[meL].[CCCC[C@@H](C(=O)[*:2])N(C)[*:1]].R.C.G.[am]}$PEPTIDE1,PEPTIDE1,1:R3-15:R3$$$V2.0)
- IC50 [1]: 43 nM

Structure (SMILES): CCCC[C@H]1C(=O)N(C)CC(=O)N[C@@H](CC(=O)O)C(=O)N[C@@H](C(C)C)C(=O)N(C)[C@@H](Cc2ccccc2)C(=O)N[C@@H](Cc2ccc(O)cc2)C(=O)N(C)CC(=O)N[C@@H](Cc2c[nH]c3ccccc23)C(=O)N[C@@H](Cc2ccc(O)cc2)C(=O)N[C@@H](CC(C)C)C(=O)N[C@H](C(=O)NCC(N)=O)CSCC(=O)N[C@@H](Cc2ccccc2)C(=O)N(C)[C@@H](Cc2cnc[nH]2)C(=O)N1C [Example 3056-B] (HELM PEPTIDE1{[O=C(C[*:3])[*:2]].F.[meH].[CCCC[C@@H](C(=O)[*:2])N(C)[*:1]].[Sar].D.V.[meF].Y.[Sar].W.Y.L.C.G.[am]}$PEPTIDE1,PEPTIDE1,1:R3-14:R3$$$V2.0)
- IC50 (cluster symbol, read-out: HTRF IC50 cluster): 6.76 to 30.3 nM
